The values that follow come from patent US20250041277A1, “METHODS AND DOSING REGIMENS COMPRISING A CDK2 INHIBITOR AND A CDK4 INHIBITOR FOR TREATING CANCER” (PFIZER INC., priority 2021, published 2025).

Assay [1] has as its system MCF7 breast cancer model. Kind of assay: In vivo efficacy, HR+/HER2− MCF7 breast cancer model (Example 4). More on the design: species or system NSG mice. The following applies: MCF7, Day 29; PO BID: PF-07104091 120 mpk, PF-07220060 60 mpk, PF-06873600 30 mpk, palbociclib 10 mpk; fulvestrant 10 mpk SC. How it is done:
(§1) Female NSG mice (Jackson Lab) were subcutaneously implanted with fragment (27 mm^3 to 64 mm^3 size) into the dorsal region. All mice for HCC1428, MCF7 and ST941 PBR studies were supplemented with 8.5 μg/mL estradiol water (β-Estradiol Sigma-Aldrich, cat #E2758-5G) and gave ad libitum till end of study. For the in vivo efficacy studies, tumor volume and body weights were measured twice a week. Tumor volume was calculated using the [(Length×Width×Width)/2)] formula. TGI was calculated as 100*(1−ΔT/ΔC). The ΔC (ΔT) was obtained by subtracting the mean tumor burden in the vehicle (treated) group on the first day of treatment (Day 0) from the mean tumor burden in vehicle (treated) group on the assessment day. Statistical analysis was performed using ANCOVA when the mean tumor volume in vehicle treated mice reached tumor cutoff size.
(§2) The MCF7 model was established by implanting donor tumor fragments into recipient mice. To establish the MCF7 donor mice, tumor cells (5×10^6 cell/mouse with 50% Cultrex® Basement Membrane Matrix) were subcutaneously implanted in female NSG mice. Once reaching a range of 700 to 800 mm^3, donor tumors were subsequently transplanted into secondary recipient mice for a study expansion. […] PF-07104091 (lot 022), PF-07220060 (lot CPo126812-01-SY-5700-01), PF-06873600 (lot 022) and PD-0332991 (lot GR08498) were administered (PO) BID (7 hr apart) while fulvestrant (lot 20160224-2) at 10 mg/kg, SC twice in the first week, then weekly afterwards. All mice received treatment continuously until Day 29. TGI was assessed on Day 29 post first dose

In assay [2] the test system is ST941 PBR PDX model. Kind of assay: In vivo efficacy, palbociclib-resistant ST941 PBR PDX model (Example 4). Details: species or system NSG mice. The following applies: ST941PBR, Day 28, PO BID: PF-07104091 120 mpk, PF-07220060 60 mpk, PF-06873600 30 mpk, palbociclib 10 mpk, fulvestrant 10 mpk SC. How it is done:
as §1
(§3) We established model in house by continuous treatment of the ST941 PBR tumor bearing mice with PD-0332991 at 50 mg/kg, PO QD plus fulvestrant at 10 mg/kg, SC twice in the first week, then weekly thereafter. To propagate donors for the TGI study, tumors were transplanted to recipient mice. One week after the re-implantation, the recipient mice received continuous treatment with palbociclib plus fulvestrant (dosing schedule described above). After 1 to 2 serial in vivo propagation with the same treatment regimen, the resistant tumors in the range of 700 to 800 mm^3 were re-implanted for a study expansion. The remaining tumor fragments were viably frozen for future use.
The live donor mice were established by implanting ST941 PBR (p13) tumor fragments. Once reaching a range of 700 to 800 mm^3, the donor tumors were subsequently transplanted into secondary recipient mice for a study expansion. To maintain the resistant clones, the ST941 PBR tumor bearing mice were treated with PD-0332991 at 50 mg/kg, PO. QD plus fulvestrant at 10 mg/kg, SC twice in the first week, then weekly afterwards for 10 weeks. The treatment was initiated one week after the implant until day of randomization for study enrollment. […] PF-07104091 (lot 021), PF-07220060 (lot CPo126812-01-SY-5700-01), PF-06873600 (lot 022) and PD-0332991 (lot GR08498) were administered (PO) BID (7 hr apart) while fulvestrant (lot 20160224-2) at 10 mg/kg, SC twice in the first week, then weekly afterwards. All mice received treatment continuously until Day 28. TGI was assessed on Day 28 post first dose.

The subject of assay [3] is HCC1428 breast cancer model. The assay can be described thus: In vivo efficacy, HR+/HER2− HCC1428 breast cancer model (Example 4). More on the design: species or system NSG mice. The following applies: HCC1428, Day 42; PO BID: PF-07104091 120 mpk, PF-07220060 60 mpk, PF-06873600 30 mpk, palbociclib 10 mpk; fulvestrant 10 mpk SC. On the procedure: as §1
as §2, with “The HCC1428” for “The MCF7”, “implanting passage 1” for “implanting donor”, “the HCC1428” for “the MCF7”, “Day 42.” for “Day 29.”, “Day 42” for “Day 29”, “first dose.” for “first dose”

The test system of assay [4] is T47D breast cancer model. Kind of assay: In vivo efficacy, HR+/HER2− T47D breast cancer model (Example 3). More on the design: species or system NSG mice. The following applies: Day 41, PO BID: PF-07104091 150 mpk, PF-07220060 60 mpk, palbociclib 10 mpk. On the procedure:
as §1, with “T47D, HCC1428” for “HCC1428, MCF7”
(§4) The T47D model was established by implanting passage 3 tumor fragments into recipient mice. To establish the T47D donor mice, tumor cells (5×10^6 cell/mouse with 50% Cultrex® Basement Membrane Matrix) were subcutaneously implanted in female NSG mice. Once reaching a range of 700 to 800 mm^3, donor tumors were subsequently transplanted into secondary recipient mice for a study expansion. […] PF-07104091 (lot 016), PF-07220060 (lot 019) and PD-0332991 (lot GR08498) were administered (PO.) BID (7 hr apart). All mice received treatment continuously until Day 41. TGI was assessed on Day 41 post first dose.

Assay [5] relates to NCI-H23 lung adenocarcinoma (LUAD) cells. The assay can be described thus: Spheroid growth inhibition (SGI) assay, NCI-H23. The following applies: NCI-H23 spheroids; 30 nM palbociclib, 300 nM PF-07220060, 300 nM PF-07104091; 14 days. It is filed as cell-based. On the procedure:
(§5) NCI-H1792 and NCI-H23 lung adenocarcinoma (LUAD) cells lines were obtained from ATCC and maintained in RPMI 1640 medium supplemented with 10% fetal bovine serum and penicillin-streptomycin as per ATCC guidelines. Cells were maintained in humidified incubator at 37° C. with 5% CO2.
(§6) Spheroid assays were performed in 96 well ultralow attachment plates (ULA-96U) from Nexcelom & Thermo Fisher Scientific. […] To aid spheroid formation, dispensed cells were centrifuged at 220×g for 6 minutes in the ultralow attachment plates and allowed to form compact spheroids for 4 days prior to the initiation of treatment. […] DMSO (0.01%) was used as the vehicle control. DMSO and all compounds were diluted in cell medium. Medium and compounds were replenished twice per week, with 3 and 4-day intervals. Replenishment was executed by aspirating 150 μL of medium per well without disturbing the spheroid and then adding the same volume of premixed medium/compound solution to spheroids. Spheroid diameter was quantified immediately following each medium change twice a week (on every 3rd or 4th day) throughout the duration of the assay.
(§7) Average diameters of tumor spheroids were plotted in GraphPad Prism 8 and the AUC calculated. AUC baseline was determined by the average tumor spheroid diameter at Day 0 in the vehicle (DMSO) controls. Spheroid growth inhibition, or SGI, was calculated as follows: SGI=(1−AUC treatment/AUC DMSO)×100%. SGI for all treatment arms was derived at the timepoint when the vehicle (DMSO) treated spheroids reach their maximal diameter (usually close to 1 mm but this can differ among cell lines); this corresponds to the last time point taken for the vehicle (DMSO) treated spheroids. SEM was calculated based on n=10 to 12 wells per test group.
(§8) Growth of lung adenocarcinoma multicellular tumor spheroids (MCTS) was monitored over time to assess: (i) amplitude of response (SGI) and (ii) duration of response to the CDK4 inhibitor PF-07220060 as a single agent, and in combination with the CDK2 inhibitor PF-07104091.

The test system of assay [6] is NCI-H1792 lung adenocarcinoma (LUAD) cells. Kind of assay: Spheroid growth inhibition (SGI) assay, NCI-H1792. It is filed as cell-based. The following applies: NCI-H1792 spheroids; 30 nM palbociclib, 300 nM PF-07220060, 300 nM PF-07104091; 14 days. On the procedure:
as §5, §6, §7, §8

The subject of assay [7] is ST941 PBR PDX model. The assay can be described thus: In vivo efficacy, palbociclib-resistant ST941 PBR PDX model (Example 3). The following applies: ST941PBR, Day 28; PO BID: PF-07104091 150 mpk, PF-07220060 60 mpk, palbociclib 10 mpk; fulvestrant 10 mpk SC 2x week 1 then weekly. More on the design: species or system NSG mice. How it is done:
as §1, with “T47D, HCC1428” for “HCC1428, MCF7”
as §3
The live donor mice were established by implanting ST941 PBR (p11) tumor fragments. Once reaching a range of 700 to 800 mm^3, the donor tumors were subsequently transplanted into secondary recipient mice for a study expansion. To maintain the resistant clones, the ST941 PBR tumor bearing mice were treated with PD-0332991 at 50 mg/kg, PO. QD plus fulvestrant at 10 mg/kg, SC twice in the first week, then weekly afterwards for 10 weeks. The treatment was initiated one week after the implant until day of randomization for study enrollment. […] TGI was assessed on Day 28 post first dose.

Assay [8] has as its system HCC1428 breast cancer model. Kind of assay: In vivo efficacy, HR+/HER2− HCC1428 breast cancer model (Example 3). The following applies: HCC1428, Day 42; PO BID: PF-07104091 150 mpk, PF-07220060 60 mpk, palbociclib 10 mpk. More on the design: species or system NSG mice. On the procedure: as §1, with “T47D, HCC1428” for “HCC1428, MCF7”
as §4, with “The HCC1428” for “The T47D”, “passage 4” for “passage 3”, “the HCC1428” for “the T47D”, “Day 42.” for “Day 41.”, “Day 42” for “Day 41”

Marks after values point to notes of the source that are not given here.

For `C[C@@]1(O)CCC[C@H]1n1c(=O)c(C(F)F)cc2cnc(NC3CCN(S(C)(=O)=O)CC3)nc21` [PF-06873600, reference compound], the TGI % in assay [1] is listed as 70%; in assay [2], 47^* %; in assay [2] (listed as PF-0873600) it was 47%; in assay [3], 97%.
In the case of `CC(=O)c1c(C)c2cnc(Nc3ccc(N4CCNCC4)cn3)nc2n(C2CCCC2)c1=O` [palbociclib, reference compound], the TGI % was 72^* % in assay [4], 15% in assay [7] and 44^* % in assay [8]. Further, the “SGI (%)” value in assay [5] is 9%; in assay [6], 54%.
